Reference: US9198886B2, “Use of 2,5-dihydroxybenzene for the treatment of ocular diseases” (priority 2006, dated 2015)

How the values were obtained:
[1] = system: Leishmania major; experiment: Leishmania major infection of the mouse paw pad; assay type: in vivo, BALB/c female mice
Source text: This model is based in the massive inoculation of Leishmania promatigotes in the mouse paw pad. Under these conditions, the parasite induces a progressive inflammation correlated with the multiplication of parasites at the site of inoculation. BALB/c strain female mice that developed severe and uncontrolled injuries were used (Foote S J, Handman E. Brief Funct Genomic Proteomic, 2005). This model has been used in pharmacology to monitor the therapeutic capacity of new leishmanicide compounds and the preventive capacity of potential vaccines against leishmaniasis ((Nelson K G et al. Antimicrob Agents Chemother. 2006).
The animals were inoculated with 5×10^6 of L. major promastigotes (strain Hervás) in 50 μL of PBS into the plantar pad of the right back paw. As negative control of the infection, a group of mice inoculated with 50 μL of PBS was used. The sizes of the lesions were measured every 7 days until the animals were sacrificed (week 9) using a Vernier caliper. The thickness of the right back paw (infected) and the left back paw (uninfected) of all the animals was measured at the base of the fifth toe. The progression of the inflammation is represented as the difference in thickness between the infected and the non-infected paws. […]

[2] = molecular target: fibroblast growth factor-1 (FGF-1) (Homo sapiens, UniProt P05230); experiment: FGF-1 induced mitogenesis in quiescent Balb/c 3T3 fibroblasts; assay type: cell-based; details: potassium salts, except 2-acetoxy-5-hydroxybenzene sulfonate as calcium salt
Procedure: The evaluated compounds were used in the form of potassium salt, except in the first case in which calcium salt was used. The experiments were carried out as described in Fernández-Tornero C et al. J Biol Chem, 2003.

[3] = system: endometriotic lesions; experiment: Rat model of endometriosis, histology of autologous implant; assay type: in vivo, Sprague-Dawley rats; details: 200 mg/kg/day i.p., two weeks
Source text: In these rats, the epithelial layer (a) and the stroma (b) are clearly observed in the endometrium, while longitudinal (c) and circular (d) normal layers of smooth muscle cells are observed in the myometrium adjacent to the peritoneal tissue (e). […] The neovascularization observed in the uterine tissue implanted in control rats (shown with arrows in A) is not present in rats treated with 2,5-dihydroxybenzenesulfonic (DHBS) (C). • D) Magnification of the area marked with a box in C.
Sprague-Dawley rats were anesthetized as described (Fernández-Tornero C et al. J Biol Chem, 2003). Endometriotic lesions were induced using a known rat model of endometriosis (Vernon M W and Wilson E A. Fertil Steril, 1985). In summary, 2 mm fragments of the cervix were autologously implanted between branches in the mesenteric vascular tree. The rats were treated or not treated (control) daily during two weeks after the surgery with 2,5-dihydroxybenzene sulfonic acid (DHBS) (200 mg/kg; i.p.). Then, the rats were sacrificed and the endometrial ectopic tissue was removed to make its histological examination. […] This example illustrates the therapeutic activity of 2,5-dihydroxybenzene sulfonate (DHBS) in the treatment of endometriosis.

[4] = system: human retinal endothelial cells (HREC); experiment: Proliferation of human retinal endothelial cells (crystal violet); assay type: cell-based; details: 100 μM, 72 hours; DHBS as calcium salt
Procedure: (§1) Primary cultures of human retinal endothelial cells (HREC) were used. Cells were obtained from Cell Systems (Virginia, USA) and subcultured with CSC complete medium (Cell Systems). Cells at 2 to 5 passages were seeded in 24-well plates at 7,500 cells/well density and, once attached, the cells were treated or not treated (controls) with 2A-5HBS (500 and 1000 μM) or 5A-2HBS (500 and 1000 μM) and they were allowed to proliferate for 72 hours, with daily medium changes. After that, the proliferation of HREC was evaluated by staining the fixed cells with crystal violet. The number of cells is proportional to the amount of retained dye, which was spectrophotometrically determined by measuring absorbance at 595 nm after removing the dye from the cells. Data are expressed as the percentage of absorbance at 595 nm obtained in control conditions. Data were obtained from two different experiments performed in triplicate.
as §1, with “2,5-DHCME (50” for “2A-5HBS (500”, “100” for “1000 μM) or 5A-2HBS (500 and 1000”, “changes. Under the same conditions, other cultures were treated with calcium 2,5-dihydroxybenzenesulfonate (DHBS; 100 μM) for comparison.” for “changes.”

fibroblast growth factor-1 (FGF-1), sequence (P05230 whole entry, species assumed): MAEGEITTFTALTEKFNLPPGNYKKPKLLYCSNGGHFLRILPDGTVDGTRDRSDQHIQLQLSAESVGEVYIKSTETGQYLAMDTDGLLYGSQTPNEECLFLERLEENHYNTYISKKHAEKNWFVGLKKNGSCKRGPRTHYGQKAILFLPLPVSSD

| SMILES | size of the lesion (paw thickness difference) ([1]; 200 mg/kg/day i.p. from day 0 to week 9, effect from the third week post-infection) | FGF-1 induced mitogenesis [2] | increase of paw thickness (infected vs non-infected paw) ([1]; potassium salt 200 mg/kg i.p. daily for 14 days from third week after infection, effect from the eighth week) | histology of implanted tissue (hematoxylin-eosin) [3] | neovascularization of implanted uterine tissue [3] | HREC proliferation [4] |
| --- | --- | --- | --- | --- | --- | --- |
| CC(=O)Oc1ccc(OC(C)=O)c(S(=O)(=O)[O-])c1.[K+] [DABS, potassium 2,5-diacetoxybenzene sulfonate] | statistically significant reduction in the size of the lesion | Inhibition of FGF-1 induced mitogenesis was observed |  |  |  |  |
| O=S(=O)(O)c1cc(O)ccc1O [DHBS, 2,5-dihydroxybenzene sulfonic acid] |  | Inhibition of the mitogenesis | significant reduction in the increase of paw thickness | athrophy of the cervix tissue implanted | not present | failed to significantly affect HREC proliferation |
